Laboratory results taken from patent publication US4740233A, “Substituted 1,2,4-triazolo[1,5-a]-pyrimidine-2-sulfonamides and compositions and methods of controlling undesired vegetation and suppressing the nitrification of ammonium nitrogen in soil” (The Dow Chemical Company, priority 1986, dated 1988).

Columns and labels:
rice = test: Postemergent control of plant species; type: in vivo, Oryza sativa; settings: Oryza sativa, post-emergence, 336 h, read-out: percent postemergent control
Method in brief: (§1)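 Spray emulsion: acetone stock at twice final concentration plus equal volume water with 0.1% wetting agent, applied to separated greenhouse beds at 2-4 leaf stage. Assessed at ~two weeks; score reflects growth reduction compared with untreated plants.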

sugar beet = test: Postemergent control of plant species; type: in vivo, Beta saccharifera; settings: Beta vulgaris, post-emergence, 336 h, read-out: percent postemergent control
Method in brief: as §1

barnyardgrass = test: Postemergent control of plant species; type: in vivo, Echinochloa crusgalli; settings: Echinochloa crus-galli, post-emergence, 336 h, read-out: percent postemergent control
Method in brief: as §1

johnson grass = test: Postemergent control of plant species; type: in vivo, Sorghum halepense; settings: Sorghum halepense, post-emergence, 336 h, read-out: percent postemergent control
Method in brief: as §1

crabgrass = test: Postemergent control of plant species; type: in vivo, Digitaria spp.; settings: Digitaria sanguinalis, post-emergence, 336 h, read-out: percent postemergent control
Method in brief: as §1

soybean = test: Postemergent control of plant species; type: in vivo, Glycine max.; settings: Glycine max, post-emergence, 336 h, read-out: percent postemergent control
Method in brief: as §1

[1] = tested on: nitrification of ammonium nitrogen; test: Suppression of nitrification of ammonium nitrogen in soil; settings: 27° C.
Method in brief: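 Value is % NH4-N remaining after a two-week, 27° C incubation of treated soil held at 1/3 bar tension moisture. Nitrate was measured with an ion-selective electrode after extraction with ammonium sulfate solution and 10 min shaking.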

wild oats = test: Postemergent control of plant species; type: in vivo, Avena fatua; settings: Avena fatua, post-emergence, 336 h, read-out: percent postemergent control
Method in brief: as §1

yellow foxtail = test: Postemergent control of plant species; type: in vivo, Setaria lutescens; settings: Setaria, post-emergence, 336 h, read-out: percent postemergent control
Method in brief: as §1

pigweed = test: Postemergent control of plant species; type: in vivo, Amaranthus spp.; settings: Amaranthus retroflexus, post-emergence, 336 h, read-out: percent postemergent control
Method in brief: as §1

annual morning glory = test: Postemergent control of plant species; type: in vivo, Ipomoea spp.; settings: Ipomoea, post-emergence, 336 h, read-out: percent postemergent control
Method in brief: as §1

cocklebur = test: Postemergent control of plant species; type: in vivo, Xanthium spp.; settings: Xanthium strumarium, post-emergence, 336 h, read-out: percent postemergent control
Method in brief: as §1

yellow nutsedge = test: Postemergent control of plant species; type: in vivo, Cyperus esculentus; settings: Cyperus, post-emergence, 336 h, read-out: percent postemergent control
Method in brief: as §1

cotton = test: Postemergent control of plant species; type: in vivo, Gossypium spp.; settings: Gossypium hirsutum, post-emergence, 336 h, read-out: percent postemergent control
Method in brief: as §1

corn = test: Postemergent control of plant species; type: in vivo, Zea mays; settings: Zea mays, post-emergence, 336 h, read-out: percent postemergent control
Method in brief: as §1

wheat = test: Postemergent control of plant species; type: in vivo, Triticum aestivum; settings: Triticum aestivum, post-emergence, 336 h, read-out: percent postemergent control
Method in brief: as §1

jimsonweed = test: Postemergent control of plant species; type: in vivo, Datura stramonium; settings: Datura stramonium, post-emergence, 336 h, read-out: percent postemergent control
Method in brief: as §1

rape = test: Postemergent control of plant species; type: in vivo, Brassica napus; settings: Brassica napus, post-emergence, 336 h, read-out: percent postemergent control
Method in brief: as §1

sorghum = test: Postemergent control of plant species; type: in vivo, Sorghum vulgare; settings: Sorghum, post-emergence, 336 h, read-out: percent postemergent control
Method in brief: as §1

velvetleaf = test: Postemergent control of plant species; type: in vivo, Abutilon theophrasti; settings: Abutilon theophrasti, post-emergence, 336 h, read-out: percent postemergent control
Method in brief: as §1

O=S(=O)(Nc1ccccc1C(F)(F)F)c1nc2ncccn2n1 [Compound 136]
plant injury at 500 ppm (rice): 0%
plant injury at 500 ppm (sugar beet): 80%
pest or weed control at 500 ppm (barnyardgrass): 0%
pest or weed control at 500 ppm (johnson grass): 0%
pest or weed control at 500 ppm (crabgrass): 0%
plant injury at 500 ppm (soybean): 30%
% NH4-N Remaining After 2 Weeks Incubation ([1]; 0.01 ppm): 0%
% NH4-N Remaining After 2 Weeks Incubation ([1]; 0.1 ppm): 10%
% NH4-N Remaining After 2 Weeks Incubation ([1]; 1 ppm): 67%
% NH4-N Remaining After 2 Weeks Incubation ([1]; 10 ppm): 98%
pest or weed control at 500 ppm (wild oats): 0%
pest or weed control at 500 ppm (yellow foxtail): 0%
pest or weed control at 500 ppm (pigweed): 90%
pest or weed control at 500 ppm (annual morning glory): 40%
pest or weed control at 500 ppm (cocklebur): 98%
pest or weed control at 500 ppm (yellow nutsedge): 0%
plant injury at 500 ppm (cotton): 30%
plant injury at 500 ppm (corn): 0%
plant injury at 500 ppm (wheat): 0%
pest or weed control at 500 ppm (jimsonweed): 30%
plant injury at 500 ppm (rape): 80%
plant injury at 500 ppm (sorghum): 0%
pest or weed control at 500 ppm (velvetleaf): 70%

Cc1cc(C)n2nc(S(=O)(=O)Nc3ccc(F)cc3Cl)nc2n1 [Compound 30]
plant injury at 500 ppm (rice): 20%
plant injury at 500 ppm (sugar beet): 0%
pest or weed control at 500 ppm (barnyardgrass): 0%
pest or weed control at 500 ppm (johnson grass): 0%
pest or weed control at 500 ppm (crabgrass): 0%
plant injury at 500 ppm (soybean): 30%
% NH4-N Remaining After 2 Weeks Incubation ([1]; 0.01 ppm): 0%
% NH4-N Remaining After 2 Weeks Incubation ([1]; 0.1 ppm): 6%
% NH4-N Remaining After 2 Weeks Incubation ([1]; 1 ppm): 54%
% NH4-N Remaining After 2 Weeks Incubation ([1]; 10 ppm): 81%
pest or weed control at 500 ppm (wild oats): 0%
pest or weed control at 500 ppm (yellow foxtail): 0%
pest or weed control at 500 ppm (pigweed): 0%
pest or weed control at 500 ppm (annual morning glory): 60%
pest or weed control at 500 ppm (cocklebur): 40%
pest or weed control at 500 ppm (yellow nutsedge): 0%
plant injury at 500 ppm (cotton): 0%
plant injury at 500 ppm (corn): 0%
plant injury at 500 ppm (wheat): 0%
pest or weed control at 500 ppm (jimsonweed): 0%
plant injury at 500 ppm (rape): 40%
plant injury at 500 ppm (sorghum): 0%
pest or weed control at 500 ppm (velvetleaf): 40%

Cc1nc2nc(S(=O)(=O)Nc3ccccc3C(F)(F)F)nn2c2c1CCC2 [Compound 106]
plant injury at 500 ppm (rice): 30%
plant injury at 500 ppm (sugar beet): 0%
pest or weed control at 500 ppm (barnyardgrass): 30%
pest or weed control at 500 ppm (johnson grass): 90%
pest or weed control at 500 ppm (crabgrass): 0%
plant injury at 500 ppm (soybean): 90%
% NH4-N Remaining After 2 Weeks Incubation ([1]; 0.01 ppm): 29%
% NH4-N Remaining After 2 Weeks Incubation ([1]; 0.1 ppm): 56%
% NH4-N Remaining After 2 Weeks Incubation ([1]; 1 ppm): 88%
% NH4-N Remaining After 2 Weeks Incubation ([1]; 10 ppm): 96%
pest or weed control at 500 ppm (wild oats): 30%
pest or weed control at 500 ppm (yellow foxtail): 0%
pest or weed control at 500 ppm (pigweed): 40%
pest or weed control at 500 ppm (annual morning glory): 80%
pest or weed control at 500 ppm (cocklebur): 90%
pest or weed control at 500 ppm (yellow nutsedge): 0%
plant injury at 500 ppm (cotton): 30%
plant injury at 500 ppm (corn): 90%
plant injury at 500 ppm (wheat): 20%
pest or weed control at 500 ppm (jimsonweed): 0%
plant injury at 500 ppm (rape): 40%
plant injury at 500 ppm (sorghum): 40%
pest or weed control at 500 ppm (velvetleaf): 0%
